# Where two headings read alike, the source gives them in different places.
# Legend:
# [1] = test system: transplanted tumor of human breast cancer cell MDA-MB-231; experiment: MDA-MB-231 transplanted tumor in nude mice
# Procedure: (§1) Then cell concentration was adjusted to 1×10^7/ml with matrigel, then each nude mouse was inoculated subcutaneously with 0.2 ml of cells at its right armpit and recorded as the first day of inoculation. When the tumor grows to be greater than or equal to 100 mm^3, the mice were randomly divided into 11 groups with 6 mice in each group: a model group, a cyclophosphamide group, isovaleryl spiramycin I groups with doses of 25, 50 and 100 mg/kg, isovaleryl spiramycin II groups with doses of 25, 50 and 100 mg/kg, and isovaleryl spiramycin III groups with doses of 25, 50 and 100 mg/kg. Each group was continuously administered intragastrically for 30 days with a dose of 20 ml/kg. The mice were sacrificed the next day after drug withdrawal and the indicators were tested. The long diameter and short diameter of the tumor, and the body weight of each mouse were recorded every 3 days from drug administration to nude mouse sacrifice.
# (§2) The body weight of the nude mice and the long diameter (a) and short diameter (b) of the transplanted tumor were measured every 3 days, and the tumor volume (v), relative tumor volume (RTV) and relative tumor proliferation rate (T/C) are calculated respectively according to the following formulas, wherein V=a×b^2/2; RTV=V/V0 (V0 is the tumor volume before administration, V is the tumor volume before sacrifice), and T/C (%)=treatment group RTV/model control group RTV×100%.
# (§3) Each mouse was weighed and sacrificed. After the tumor was completely stripped off from the body of the mouse, the non-tumor tissues such as blood stains and fat were removed to weigh the tumor and calculate the tumor growth inhibition rate. The average tumor weight of each group of mice is used as an indicator of efficacy. Tumor growth inhibition rate (%)=(1−the average tumor weight of the treatment group/the average tumor weight of the model group)×100%.
# [2] = test system: transplanted tumor of human prostate cancer cell PC3; experiment: PC3 transplanted tumor in nude mice
# Procedure: as §1, §2, §3
# [3] = test system: transplanted tumor of human non-small cell lung cancer cell H1299
# Procedure: as §1, with “group:” for “group: a model group, a cyclophosphamide group,”
# as §2, §3
# [4] = test system: transplanted tumor of human bladder cancer cell T-24; experiment: T-24 transplanted tumor in nude mice; conditions: for Tumor Volume (mm3) (d30): d 30
# Procedure: as §1, with “group:” for “group: a model group, a cyclophosphamide group,”
# as §2, §3
# [5] = MDA-MB-231, 25 mg/kg (low dose) i.g. 30 days
# [6] = MDA-MB-231, 50 mg/kg (medium dose) i.g. 30 days
# [7] = MDA-MB-231, 100 mg/kg (high dose) i.g. 30 days
# [8] = PC3, 25 mg/kg (low dose) i.g. 30 days
# [9] = PC3, 50 mg/kg (medium dose) i.g. 30 days
# [10] = PC3, 100 mg/kg (high dose) i.g. 30 days
# [11] = H1299, 25 mg/kg (low dose) i.g. 30 days
# [12] = H1299, 50 mg/kg (medium dose) i.g. 30 days
# [13] = H1299, 100 mg/kg (high dose) i.g. 30 days
# [14] = T-24, high dose (100 mg/kg in method) i.g. 30 days
# [15] = T-24, low dose (25 mg/kg in method) i.g. 30 days
# [16] = T-24, medium dose (50 mg/kg in method) i.g. 30 days
compound,measurement,setting,value
"CO[C@@H]1[C@@H](O[C@@H]2O[C@H](C)[C@@H](O[C@H]3C[C@@](C)(O)[C@@H](OC(=O)CC(C)C)[C@H](C)O3)[C@H](N(C)C)[C@H]2O)[C@@H](CC=O)C[C@@H](C)[C@@H](O[C@H]2CC[C@H](N(C)C)[C@@H](C)O2)/C=C/C=C/C[C@@H](C)OC(=O)C[C@H]1O [Isovaleryl spiramycin I, isovaleryl spiramycin I]",Inhibition Rate (tumor growth inhibition rate),[1]; [5],22.84%
same,Relative Tumor Proliferation Rate (T/C),[1]; [5],69.71%
same,Relative Tumor Volume (RTV),[1]; [5],10.89 ± 2.52
same,Tumor Volume (d 1),[1]; [5],111.07 ± 8.47 mm3
same,Tumor Volume (d 30),[1]; [5],1213.38 ± 299.29 mm3
same,Tumor Weight,[1]; [5],1.79 ± 0.34 g
same,Inhibition Rate (tumor growth inhibition rate),[1]; [6],55.17%
same,Relative Tumor Proliferation Rate (T/C),[1]; [6],44.18%
same,Relative Tumor Volume (RTV),[1]; [6],6.90 ± 2.43
same,Tumor Volume (d 1),[1]; [6],116.00 ± 8.13 mm3
same,Tumor Volume (d 30),[1]; [6],807.45 ± 319.26 mm3
same,Tumor Weight,[1]; [6],1.04 ± 0.44 g
same,Inhibition Rate (tumor growth inhibition rate),[1]; [7],69.11%
same,Relative Tumor Proliferation Rate (T/C),[1]; [7],27.74%
same,Relative Tumor Volume (RTV),[1]; [7],4.33 ± 3.47
same,Tumor Volume (d 1),[1]; [7],111.91 ± 10.26 mm3
same,Tumor Volume (d 30),[1]; [7],458.55 ± 338.74 mm3
same,Tumor Weight,[1]; [7],0.72 ± 0.48 g
same,tumor volume and relative tumor volume compared with the model group,"[1]; MDA-MB-231, low, medium and high doses, P<0.05",significantly lower
same,mouse weight compared with the model group,"[1]; mouse, in vivo",no significant changes
same,Inhibition Rate (tumor growth inhibition rate),[2]; [8],33.87%
same,Relative Tumor Proliferation Rate (T/C),[2]; [8],70.43%
same,Relative Tumor Volume (RTV),[2]; [8],13.78 ± 3.15
same,Tumor Volume (d 1),[2]; [8],127.59 ± 6.73 mm3
same,Tumor Volume (d 30),[2]; [8],1758.15 ± 412.68 mm3
same,Tumor Weight,[2]; [8],1.24 ± 0.51 g
same,Inhibition Rate (tumor growth inhibition rate),[2]; [9],51.33%
same,Relative Tumor Proliferation Rate (T/C),[2]; [9],49.14%
same,Relative Tumor Volume (RTV),[2]; [9],9.61 ± 3.15
same,Tumor Volume (d 1),[2]; [9],186.59 ± 39.40 mm3
same,Tumor Volume (d 30),[2]; [9],1706.14 ± 347.50 mm3
same,Tumor Weight,[2]; [9],0.91 ± 0.33 g
same,Inhibition Rate (tumor growth inhibition rate),[2]; [10],71.01%
same,Relative Tumor Proliferation Rate (T/C),[2]; [10],30.72%
same,Relative Tumor Volume (RTV),[2]; [10],6.01 ± 1.78
same,Tumor Volume (d 1),[2]; [10],175.94 ± 12.32 mm3
same,Tumor Volume (d 30),[2]; [10],1041.69 ± 247.71 mm3
same,Tumor Weight,[2]; [10],0.55 ± 0.21 g
same,tumor volume and relative tumor volume compared with the model group,"[2]; PC3, low, medium and high doses, P<0.05",significantly lower
same,mouse weight compared with the model group,"[2]; mouse, in vivo",no significant changes
same,Inhibition Rate (tumor growth inhibition rate),[3]; [11],22.11%
same,Relative Tumor Proliferation Rate (T/C),[3]; [11],89.42%
same,Relative Tumor Volume (RTV),[3]; [11],11.46 ± 3.83
same,Tumor Volume (d 1),[3]; [11],136.07 ± 17.13 mm3
same,Tumor Volume (d 30),[3]; [11],1513.14 ± 387.19 mm3
same,Tumor Weight,[3]; [11],1.36 ± 0.33 g
same,Inhibition Rate (tumor growth inhibition rate),[3]; [12],43.83%
same,Relative Tumor Proliferation Rate (T/C),[3]; [12],49.81%
same,Relative Tumor Volume (RTV),[3]; [12],6.39 ± 1.01
same,Tumor Volume (d 1),[3]; [12],135.51 ± 20.47 mm3
same,Tumor Volume (d 30),[3]; [12],861.71 ± 164.32 mm3
same,Tumor Weight,[3]; [12],0.98 ± 0.27 g
same,Inhibition Rate (tumor growth inhibition rate),[3]; [13],69.95%
same,Relative Tumor Proliferation Rate (T/C),[3]; [13],27.43%
same,Relative Tumor Volume (RTV),[3]; [13],3.52 ± 0.68
same,Tumor Volume (d 1),[3]; [13],137.34 ± 22.95 mm3
same,Tumor Volume (d 30),[3]; [13],470.36 ± 21.77 mm3
same,Tumor Weight,[3]; [13],0.52 ± 0.21 g
same,tumor volume and relative tumor volume compared with the model group,"[3]; H1299, low, medium and high doses, P<0.05",significantly lower
same,mouse weight compared with the model group,"[3]; mouse, in vivo",no significant changes
same,Relative Tumor Proliferation Rate (T/C),[4]; [14],33.95%
same,tumor growth inhibition rate,[4]; [14],65.84%
same,Relative Tumor Proliferation Rate (T/C),[4]; [15],77.78%
same,tumor growth inhibition rate,[4]; [15],20.55%
same,tumor volume and relative tumor volume compared with the model group,"[4]; T-24, low, medium and high doses, P<0.05",significantly lower
same,Relative Tumor Proliferation Rate (T/C),[4]; [16],58.92%
same,tumor growth inhibition rate,[4]; [16],49.20%
same,Inhibition Rate (%),[4]; dose 25 mg/kg,20.55%
same,Relative Tumor Proliferation Rate (T/C),[4]; dose 25 mg/kg,77.78%
same,Relative Tumor Volume (RTV),[4]; dose 25 mg/kg,10.28 ± 1.12
same,Tumor Weight,[4]; dose 25 mg/kg,1.49 ± 0.23 g
same,Tumor Volume (mm3) (d 1),[4]; dose 25 mg/kg,139.84 ± 15.80 mm3
same,Tumor Volume (mm3) (d30),[4]; dose 25 mg/kg,1428.71 ± 156.12 mm3
same,Inhibition Rate (%),[4]; dose 50 mg/kg,49.20%
same,Relative Tumor Proliferation Rate (T/C),[4]; dose 50 mg/kg,58.92%
same,Relative Tumor Volume (RTV),[4]; dose 50 mg/kg,7.78 ± 1.27
same,Tumor Weight,[4]; dose 50 mg/kg,0.95 ± 0.38 g
same,Tumor Volume (mm3) (d 1),[4]; dose 50 mg/kg,131.81 ± 7.15 mm3
same,Tumor Volume (mm3) (d30),[4]; dose 50 mg/kg,1025.16 ± 174.78 mm3
same,Inhibition Rate (%),[4]; dose 100 mg/kg,65.84%
same,Relative Tumor Proliferation Rate (T/C),[4]; dose 100 mg/kg,33.95%
same,Relative Tumor Volume (RTV),[4]; dose 100 mg/kg,4.48 ± 0.75
same,Tumor Weight,[4]; dose 100 mg/kg,0.64 ± 0.18 g
same,Tumor Volume (mm3) (d 1),[4]; dose 100 mg/kg,134.21 ± 14.43 mm3
same,Tumor Volume (mm3) (d30),[4]; dose 100 mg/kg,606.16 ± 136.06 mm3
same,mouse weight compared with the model group,"[4]; mouse, in vivo",no significant changes
same,Body Weight (g) (d1),"[4]; mouse, in vivo, 25 mg/kg",19.51 ± 0.58 g
same,Body Weight (g) (d30),"[4]; mouse, in vivo, 25 mg/kg",23.89 ± 1.18 g
same,Body Weight (g) (d1),"[4]; mouse, in vivo, 50 mg/kg",19.60 ± 0.70 g
same,Body Weight (g) (d30),"[4]; mouse, in vivo, 50 mg/kg",25.41 ± 0.92 g
same,Body Weight (g) (d1),"[4]; mouse, in vivo, 100 mg/kg",19.49 ± 0.54 g
same,Body Weight (g) (d30),"[4]; mouse, in vivo, 100 mg/kg",24.6 ± 2.08 g

# Reference: US20200163984A1, “USE OF ISOVALERYL SPIRAMYCIN I, II AND/OR III IN MANUFACTURING MEDICAMENT FOR TREATING AND/OR PREVENTING TUMOR, AND MEDICAMENT” (SHENYANG FUYANG PHARMACEUTICAL TECHNOLOGY CO., LTD., priority 2017, published 2020)
